Data: PMC12592418, “Therapeutic potential of red bean (phaseolus vulgaris) peptides: anticancer, antihypertension, and antioxidant activities” (Scientific Reports, 2025)
No end group written: not given here.

T1: angiotensin-converting enzyme (ACE) (UniProt P12822)
T1 sequence (P12822 whole entry, species assumed, looked up): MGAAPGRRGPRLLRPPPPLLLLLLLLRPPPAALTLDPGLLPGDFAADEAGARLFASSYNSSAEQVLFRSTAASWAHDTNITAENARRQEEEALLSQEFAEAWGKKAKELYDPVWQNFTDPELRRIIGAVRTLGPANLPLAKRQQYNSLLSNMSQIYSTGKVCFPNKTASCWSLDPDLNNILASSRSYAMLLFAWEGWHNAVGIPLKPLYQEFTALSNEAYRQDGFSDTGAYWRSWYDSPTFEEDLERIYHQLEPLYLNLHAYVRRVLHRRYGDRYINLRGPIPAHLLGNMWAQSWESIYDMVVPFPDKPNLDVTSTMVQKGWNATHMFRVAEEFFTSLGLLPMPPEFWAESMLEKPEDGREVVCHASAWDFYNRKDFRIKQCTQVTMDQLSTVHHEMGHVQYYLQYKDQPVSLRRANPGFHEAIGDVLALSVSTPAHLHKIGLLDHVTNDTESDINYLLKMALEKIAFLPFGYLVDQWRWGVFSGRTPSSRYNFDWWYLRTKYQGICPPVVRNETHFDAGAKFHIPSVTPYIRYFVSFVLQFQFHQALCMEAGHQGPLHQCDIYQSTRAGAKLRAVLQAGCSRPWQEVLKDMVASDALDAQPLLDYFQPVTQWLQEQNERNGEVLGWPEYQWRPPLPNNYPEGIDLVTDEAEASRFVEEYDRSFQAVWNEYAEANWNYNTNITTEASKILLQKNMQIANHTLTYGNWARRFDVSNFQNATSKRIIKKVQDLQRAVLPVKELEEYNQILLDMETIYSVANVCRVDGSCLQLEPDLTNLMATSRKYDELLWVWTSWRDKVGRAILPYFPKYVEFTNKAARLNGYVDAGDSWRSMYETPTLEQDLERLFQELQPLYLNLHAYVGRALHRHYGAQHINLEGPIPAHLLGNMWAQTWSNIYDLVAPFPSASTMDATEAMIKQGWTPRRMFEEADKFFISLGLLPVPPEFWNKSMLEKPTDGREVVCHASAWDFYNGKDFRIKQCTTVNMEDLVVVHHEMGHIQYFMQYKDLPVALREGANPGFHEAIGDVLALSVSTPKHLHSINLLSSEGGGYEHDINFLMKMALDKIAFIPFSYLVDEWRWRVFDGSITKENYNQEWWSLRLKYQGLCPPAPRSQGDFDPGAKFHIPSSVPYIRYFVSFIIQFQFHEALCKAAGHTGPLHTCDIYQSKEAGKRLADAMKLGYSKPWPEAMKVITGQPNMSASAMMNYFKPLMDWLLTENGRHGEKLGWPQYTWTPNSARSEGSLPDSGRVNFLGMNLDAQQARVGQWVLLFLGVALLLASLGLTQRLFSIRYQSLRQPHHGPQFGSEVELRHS


What was measured:
CaCO2 cells = test: MTT cell viability assay, CaCO2; format: cell-based, human; conditions: synthetic peptide 100 µg/ml, 24 h, mean ± SD, n = 3
Experimental: (§1) CaCO2, HepG2, MCF-7, NCI-H460, SiHa, SW620, and Vero cells were obtained from the American Type Culture Collection (ATCC, Manassas, VA, USA). Cells were cultured in Dulbecco’s Modified Eagle’s Medium (DMEM; PAA, Pasching, Austria), supplemented with 10% (v/v) fetal bovine serum (Gibco, South America), 10 mM HEPES (HyClone, Utah, USA), 2 mM L-glutamine, and 100 U/mL penicillin and 100 µg/mL streptomycin. Cultures were maintained at 37 °C in a humidified atmosphere containing 5% CO₂.
(§2) The anticancer activity of protein hydrolysates and synthetic peptides against CaCO2, HepG2, MCF-7, NCI-H460, SiHa, SW620, and Vero cells were evaluated using the MTT assay. Cells were seeded into 96-well plates (Nunc™, Roskilde, Denmark) at a density of 2 × 10⁴ cells per well, and allowed to adhere. Following seeding, cells were treated with 100 µg/mL of protein hydrolysates or synthetic peptides for 24 h, while untreated cells served as controls. After 24 h, 20 µL of MTT solution (5 mg/mL; Sigma, St. Louis, MO, USA) was added to each well and incubated for an additional 3 h. The supernatant was then removed, and 100 µL of DMSO was added to each well to dissolve the formazan crystals. Optical density (OD) was measured at 540 nm using a microplate reader (Rayto RT-2100 C, China). Cell viability was calculated using the equation: (OD of treated cells/OD of untreated cells) × 100.
(§3) The IC50 values were calculated from a fitted semi-log response curve, plotting cell viability percentages against concentration. These values were determined using the AAT-Bioquest IC50 calculator (https://www.aatbio.com/tools/ic50-calculator).

HepG2 cells = test: MTT cell viability assay, HepG2; format: cell-based, human; conditions: synthetic peptide 100 µg/ml, 24 h, mean ± SD, n = 3
Experimental: as §1, §2, §3

MCF-7 cells = test: MTT cell viability assay, MCF-7; format: cell-based, human; conditions: synthetic peptide 100 µg/ml, 24 h, mean ± SD
Experimental: as §1, §2, §3

NCI-H460 cells = test: MTT cell viability assay, NCI-H460; format: cell-based, human; conditions: synthetic peptide 100 µg/ml, 24 h, mean ± SD
Experimental: as §1, §2, §3

SiHa cells = test: MTT cell viability assay, SiHa; format: cell-based, human; conditions: synthetic peptide 100 µg/ml, 24 h, mean ± SD, n = 3
Experimental: as §1, §2, §3

SW620 cells = test: MTT cell viability assay, SW620; format: cell-based, human; conditions: synthetic peptide 100 µg/ml, 24 h, mean ± SD
Experimental: as §1, §2, §3

Vero cells = test: MTT cell viability assay, Vero; format: cell-based, monkey; conditions: synthetic peptide 100 µg/ml, 24 h, mean ± SD, n = 3
Experimental: as §1, §2, §3

[1] = tested on: angiotensin-converting enzyme (ACE); test: ACE inhibitory activity assay (HHL substrate); format: biochemical; conditions: peptide 100 µg/ml, ACE 0.2 U/mL, 5 mM HHL, phosphate buffer pH 6.8, 37 °C, mean ± SD, n = 3
Experimental: The method utilized here is a spectrophotometric method based on the commonly used method introduced by Cushman and Cheung (1971)[45]. The 5 ul of sample was preincubated with 45 ul of ACE enzyme (0.2 U/mL) in 100 mM Phosphate buffer (pH 6.8) and incubated for 10 min at 37 °C. Enzyme activity was assayed by monitoring the hydrolysis of hippuryl-L-histidyl-L-leucine (HHL). After adding 50 µL of a 5 mM HHL substrate solution, the increase in absorbance at 405 nm was measured every minute for 15 min at 37 °C using a 96-well microplate reader. The initial velocity was determined from the linear portion of the curve, and the inhibitory activity was expressed as a percentage calculated using the following equation:
% inhibition = (1-(B-b)/(A-a)) x 100,
where A is an initial velocity of the control reaction with enzyme (control), a is an initial velocity of the control reaction without enzyme (control blank), B is an initial velocity of the enzyme reaction with sample and b is an initial velocity of the reaction with sample but without enzyme (sample blank).

[2] = ABTS radical scavenging assay; format: physicochemical; conditions: peptide 100 µg/ml, 5 min in the dark, absorbance 750 nm, mean ± SD, n = 3
Experimental: Radical scavenging antioxidant activity was determined according to the ABTS radical scavenging activity following the method described by Re et al.[46] with slight modifications. Briefly, the solution of ABTS radical was prepared from the reaction between 7 mM ABTS (2,2-azino-bis (3-ethylbenzothiazoline-6-sulphonic acid) diammonium salt) and 2.45 mM ammonium persulphate. The resulting ABTS solution was diluted with distilled water to achieve an optical density of 0.7 at 750 nm. Then, a sample or standard of 10 µL was mixed with 190 µL of ABTS solution and incubated for 5 min in the dark. The absorbance was measured at 750 nm by a microplate reader (Rayto RT-2100 C, China). Ascorbic acid was used as the standard.

[3] = DPPH radical scavenging assay; format: physicochemical; conditions: peptide 100 µg/ml, 0.1 mM DPPH, 30 min in the dark, room temperature, absorbance 517 nm, mean ± SD, n = 3
Experimental: The DPPH radical scavenging activity of the sample was evaluated following the protocol by Muangrod et al.[48] with slight modifications. Briefly, 190 µL of 0.1 mM DPPH was mixed with 10 µL of the sample or standard ascorbic acid in each well and incubated at room temperature in the dark for 30 min. The absorbance of the mixture was measured at 517 nm using a microplate reader (Rayto RT-2100 C, China). Ascorbic acid was used as the standard. Results were expressed as micrograms ascorbic acid equivalent (µg AAE g^−1).

[4] = FRAP ferric ion-reducing antioxidant power assay; format: physicochemical; conditions: peptide 100 µg/ml, 30 min in the dark, absorbance 593 nm, mean ± SD, n = 3
Experimental: The ferric ion-reducing antioxidant power assay was analyzed according to the method by Rumpf et al.[47] with minor modifications. Briefly, the FRAP reagent was prepared from 300 mM sodium acetate (pH 3.6) and 10 mM TPTZ (2,4,6-tris (2-pyridyl)-s-triazine) in 40 mM HCl and 20 mM ferric chloride at the ratio of 10:1:1, respectively. Then, a 10 µL aliquot of the sample or standard was mixed with 190 µL of the FRAP reagent before incubating in the dark for 30 min. The absorbance was measured at 593 nm using a microplate reader (Rayto RT-2100 C, China). Ascorbic acid was used as the standard. Results were expressed as micrograms of ascorbic acid equivalent per gram (µg AAE g^−1).

[5] = molecular target: T1, angiotensin-converting enzyme (ACE)

Molecule	Inhibitory percentage, CaCO2 (CaCO2 cells)	Inhibitory percentage, HepG2 (HepG2 cells)	Inhibitory percentage, SiHa (SiHa cells)	Inhibitory percentage, Vero (Vero cells)	Antioxidant, ABTS [2]	Antioxidant, DPPH [3]	Antioxidant, FRAP [4]	Antihypertension (%): percent inhibition of ACE activity (hydrolysis of hippuryl-L-histidyl-L-leucine) at 100 µg/ml peptide [5]	other results
APANGSAF [RB-5]	13.21±0.04%	0%	8.75±0.00%	0%	412.60±0.71 µg ascorbic acid equivalent	374.62±13.56 µg ascorbic acid equivalent	87.48±0.20 µg ascorbic acid equivalent	–	Inhibitory percentage, MCF-7 (MCF-7 cells; n = 3): 0%; Inhibitory percentage, NCI-H460 (NCI-H460 cells; n = 3, SD): 10.58±0.03%; Inhibitory percentage, SW620 (SW620 cells; n = 3, SD): 3.58±0.04%; Antihypertension (%), percentage inhibition of ACE ([1]; SD): 43.33±0.33%
DHPTGGL [RB-2]	8.99±0.08%	0%	10.28±0.02%	0%	284.62±0.75 µg ascorbic acid equivalent	239.10±0.83 µg ascorbic acid equivalent	59.87±0.06 µg ascorbic acid equivalent	–	Inhibitory percentage, MCF-7 (MCF-7 cells; n = 3): 0%; Inhibitory percentage, NCI-H460 (NCI-H460 cells; n = 3): 0%; Inhibitory percentage, SW620 (SW620 cells; n = 3): 0%; Antihypertension (%), percentage inhibition of ACE [1]: 0%
GSEIRSTSDDVL [RB-4]	11.27±0.07%	0%	11.45±0.00%	0%	539.58±3.43 µg ascorbic acid equivalent	424.61±1.53 µg ascorbic acid equivalent	128.47±0.86 µg ascorbic acid equivalent	–	Inhibitory percentage, MCF-7 (MCF-7 cells; n = 3): 0%; Inhibitory percentage, NCI-H460 (NCI-H460 cells; n = 3, SD): 6.08±0.01%; Inhibitory percentage, SW620 (SW620 cells; n = 3): 0%; Antihypertension (%), percentage inhibition of ACE ([1]; SD): 13.33±0.60%
LIIPATSTKFL [RB-8]	20.79±1.23%	–	–	–	–	–	–	–	–
NLRKLKRL [RB-1]	7.33±0.02%	0%	4.64±0.02%	0%	367.86±25.39 µg ascorbic acid equivalent	373.74±12.01 µg ascorbic acid equivalent	189.53±6.59 µg ascorbic acid equivalent	–	Inhibitory percentage, MCF-7 (MCF-7 cells; n = 3, SD): 2.10±0.00%; Inhibitory percentage, NCI-H460 (NCI-H460 cells; n = 3, SD): 5.40±0.01%; Inhibitory percentage, SW620 (SW620 cells; n = 3): 0%; Antihypertension (%), percentage inhibition of ACE ([1]; SD): 20.00±2.82%
RGSKQRQKRQW [RB-7]	–	–	–	–	–	–	–	60%	–
APANGSAF [RB-5]	–	–	–	–	–	–	–	43.3%	–
GSEIRSTSDDVL [RB-4]	–	–	–	–	–	–	–	13.3%	–
SPTPPKNVPF [RB-3]	–	–	–	–	–	–	–	20%	–
NLRKLKRL [RB-1]	–	–	–	–	–	–	–	20%	–
LIIPATSTKFL [RB-8]	–	–	–	–	–	–	–	16.7%	–
DHPTGGL [RB-2]	–	–	–	–	–	–	–	0%	–
RRLRILL [RB-6]	–	–	–	–	–	–	–	46.7%	–
